Values quoted from earlier work as cited in patent US20080119444A1, “Methods and compositions for the treatment of cancer” (priority 2006, published 2008).

Tests used:
HMG-CoA reductase = biological target: T1, HMG-CoA reductase (Homo sapiens, UniProt P04035)
T1 sequence (P04035 1-888): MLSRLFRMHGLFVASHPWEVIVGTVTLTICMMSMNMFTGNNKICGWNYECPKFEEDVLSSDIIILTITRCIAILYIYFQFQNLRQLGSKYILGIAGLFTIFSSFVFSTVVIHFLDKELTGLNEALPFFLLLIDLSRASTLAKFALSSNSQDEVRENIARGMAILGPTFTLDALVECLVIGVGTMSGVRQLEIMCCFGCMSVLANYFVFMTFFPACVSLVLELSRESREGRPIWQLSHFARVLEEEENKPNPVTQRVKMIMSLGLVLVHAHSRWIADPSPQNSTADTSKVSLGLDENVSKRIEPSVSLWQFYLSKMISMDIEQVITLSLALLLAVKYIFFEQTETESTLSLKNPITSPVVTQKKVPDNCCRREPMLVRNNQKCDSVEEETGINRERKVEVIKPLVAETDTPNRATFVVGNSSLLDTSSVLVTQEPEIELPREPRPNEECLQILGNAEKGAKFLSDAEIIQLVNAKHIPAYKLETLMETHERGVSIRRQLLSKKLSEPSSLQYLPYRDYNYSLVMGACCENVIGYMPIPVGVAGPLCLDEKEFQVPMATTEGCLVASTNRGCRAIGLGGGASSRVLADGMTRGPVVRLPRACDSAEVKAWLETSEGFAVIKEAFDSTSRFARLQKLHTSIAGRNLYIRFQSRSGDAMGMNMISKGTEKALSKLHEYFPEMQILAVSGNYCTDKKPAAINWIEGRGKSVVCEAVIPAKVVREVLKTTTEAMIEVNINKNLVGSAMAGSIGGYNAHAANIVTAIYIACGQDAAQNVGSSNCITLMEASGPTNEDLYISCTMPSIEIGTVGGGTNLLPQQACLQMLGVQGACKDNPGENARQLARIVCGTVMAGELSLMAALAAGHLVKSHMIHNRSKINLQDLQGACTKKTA

early breast cancer = details: for contralateral breast cancers (events) / disease-free survival events / distant metastases (events) / time-to-recurrence events: median follow-up 68 months
[1] = ATAC trial
[2] = exemestane vs tamoxifen
breast cancer = details: for disease-free survival: after 2 to 3 years of tamoxifen: switch to exemestane or continue tamoxifen, total 5 years, median follow-up 30.6 months
[3] = test system: endocrine-responsive breast cancer; details: adjuvant letrozole compared with tamoxifen, postmenopausal women
[4] = in vivo
[5] = tamoxifen users
[6] = sequence tamoxifen then exemestane vs continued tamoxifen
[7] = 5 years of tamoxifen treatment, women with ER+ disease
[8] = at 15 years, ER+ (or ER unknown) tumors, 5 years of tamoxifen

SMILES | potency relative to another statin (HMG-CoA reductase) | contralateral breast cancers (events) (early breast cancer) | disease-free survival events (early breast cancer) [events] | distant metastases (events) (early breast cancer) | time-to-recurrence events (early breast cancer) | withdrawal rate for drug-related adverse events [1] [%] | disease-free survival (breast cancer) [%] | fracture rate compared to tamoxifen | further results
CC(C)c1c(C(=O)Nc2ccccc2)c(-c2ccccc2)c(-c2ccc(F)cc2)n1CC[C@@H](O)C[C@@H](O)CC(=O)O [Atorvastatin, atorvastatin] | approximately twice as potent as simvastatin |  |  |  |  |  |  |  | 
CC(C)(C#N)c1cc(Cn2cncn2)cc(C(C)(C)C#N)c1 [anastrozole] |  | 35 | 575 | 324 | 402 | 5.1 |  |  | reduction of contralateral breast cancers (early breast cancer; anastrozole vs tamoxifen): 42%
C=C1C[C@@H]2[C@H](CC[C@]3(C)C(=O)CC[C@@H]23)[C@@]2(C)C=CC(=O)C=C12 [exemestane] |  |  |  |  |  |  | 91.5 | non-significant increase in fracture rate | diarrhea [2]: 4.3%; absolute difference in disease-free survival (breast cancer; [6]): 4.7%; disease-free survival HR (breast cancer; [6]): 0.68; bone loss during treatment (compared to placebo): minor bone loss
N#Cc1ccc(C(c2ccc(C#N)cc2)n2cncn2)cc1 [letrozole] |  |  |  |  |  |  |  | significantly increase fracture rate | risk of recurrent disease [3]: reduced the risk of recurrent disease; grade 3, 4, or 5 cardiac events [4]: 2.1%; patients with hypercholesterolemia reported at least once during treatment [4]: 43.6%; fracture rate compared to placebo (compared to placebo): non-significant increase in fracture rate
CC(C)c1nc(N(C)S(C)(=O)=O)nc(-c2ccc(F)cc2)c1/C=C/[C@@H](O)C[C@@H](O)CC(=O)O [rosuvastatin] | more potent than atorvastatin |  |  |  |  |  |  |  | 
CC/C(=C(\c1ccccc1)c1ccc(OCCN(C)C)cc1)c1ccccc1 [tamoxifen] |  | 59 | 651 | 375 | 498 | 7.2 | 86.8 |  | reduction of annual rate of mortality (ER+ breast cancer; [7]): 34%; reduction of annual rate of recurrence (ER+ breast cancer; [7]): 41%; absolute reduction in mortality (ER+ breast cancer; [8]): 9.2%; absolute reduction in recurrence (ER+ breast cancer; [8]): 11.8%; 10-year risk of mortality from endometrial cancer [5]: 2 per 1000
